Laboratory results from ChEMBL document CHEMBL1201862, “PubChem BioAssay data set” (2004).
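A five-concentration, 48-hour dose response in 96-well plates underlies each endpoint, interpolated linearly between surrounding concentrations. Here, GI50 denotes the concentration required for 50% inhibition of growth.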 Calls of active or inactive are those of the source. Rule as the data show it: active = GI50 up to about 1.1 µM and inactive = higher.

Columns and labels:
Experiment in all cases: growth of human tumour cells (NCI), 48 h
786-0 = test system: 786-0
A498 = test system: A498
A549 = test system: A549
ACHN = test system: ACHN
BT-549 = test system: BT-549
CAKI-1 = test system: CAKI-1
CCRF-CEM = test system: CCRF-CEM
COLO 205 = test system: COLO 205
DU-145 = test system: DU-145
EKVX = test system: EKVX
HCC 2998 = test system: HCC 2998
HCT-116 = test system: HCT-116
HCT-15 = test system: HCT-15
HL-60 = test system: HL-60
HOP-62 = test system: HOP-62
HT-29 = test system: HT-29
Hs-578T = test system: Hs-578T
IGROV-1 = test system: IGROV-1
K562 = test system: K562
KM12 = test system: KM12
LOX IMVI = test system: LOX IMVI
M14 = test system: M14
MCF7 = test system: MCF7
MDA-MB-435 = test system: MDA-MB-435
MDA-N = test system: MDA-N
MOLT-4 = test system: MOLT-4
Malme-3M = test system: Malme-3M
NCI-H23 = test system: NCI-H23
NCI-H460 = test system: NCI-H460
NCI-H522 = test system: NCI-H522
NCI/ADR-RES = test system: NCI/ADR-RES
OVCAR-3 = test system: OVCAR-3
OVCAR-4 = test system: OVCAR-4
OVCAR-5 = test system: OVCAR-5
OVCAR-8 = test system: OVCAR-8
PC-3 = test system: PC-3
RPMI-8226 = test system: RPMI-8226
SF-268 = test system: SF-268
SF-295 = test system: SF-295
SF-539 = test system: SF-539
SK-MEL-28 = test system: SK-MEL-28
SK-MEL-2 = test system: SK-MEL-2
SK-MEL-5 = test system: SK-MEL-5
SK-OV-3 = test system: SK-OV-3
SNB-19 = test system: SNB-19
SR = test system: SR
SW-620 = test system: SW-620
T47D = test system: T47D
U-251 = test system: U-251
UACC-257 = test system: UACC-257
UACC-62 = test system: UACC-62
UO-31 = test system: UO-31

In the case of `CC12CC(c3ccccc3O1)C(C(=O)Nc1cccc(F)c1)C(=O)N2` (configuration not stated), the GI50 (786-0) is reported as > 100 µM (inactive), the GI50 (A498) is reported as > 100 µM (inactive) and the GI50 (A549) is reported as 52.1 µM (inactive). For the same compound, the GI50 (ACHN) was > 100 µM (inactive), the GI50 (BT-549) was 23.5 µM (inactive) and the GI50 (CAKI-1) was 92.3 µM (inactive). For the same compound, the GI50 (CCRF-CEM) was 26.3 µM (inactive), the GI50 (COLO 205) was 62.7 µM (inactive) and the GI50 (DU-145) was > 100 µM (inactive). The GI50 (EKVX) was 31.6 µM (inactive), the GI50 (HCC 2998) was > 100 µM (inactive) and the GI50 (HCT-116) was 91.2 µM (inactive). For the same compound, the GI50 (HCT-15) was 42.9 µM, the GI50 (HL-60) was 30.5 µM (inactive) and the GI50 (HOP-62) was > 100 µM (inactive). For the same compound, the GI50 (HT-29) was 55.8 µM (inactive), the GI50 (Hs-578T) was > 100 µM (inactive) and the GI50 (IGROV-1) was 40.7 µM (inactive). The GI50 (K562) was 35.4 µM (inactive), the GI50 (KM12) was 49.7 µM (inactive) and the GI50 (LOX IMVI) was 49 µM (inactive). For the same compound, the GI50 (M14) was 90.4 µM (inactive), the GI50 (MCF7) was 44.7 µM (inactive) and the GI50 (MDA-MB-435) was 38.8 µM (inactive). For the same compound, the GI50 (MDA-N) was 54 µM (inactive), the GI50 (MOLT-4) was 18.8 µM (inactive) and the GI50 (Malme-3M) was > 100 µM (inactive). For the same compound, the GI50 (NCI-H23) was 17.3 µM (inactive), the GI50 (NCI-H460) was 47.2 µM (inactive) and the GI50 (NCI-H522) was > 100 µM (inactive). For the same compound, the GI50 (NCI/ADR-RES) was 26.6 µM (inactive), the GI50 (OVCAR-3) was 92 µM (inactive) and the GI50 (OVCAR-4) was 30.1 µM (inactive). The GI50 (OVCAR-5) was > 100 µM (inactive), the GI50 (OVCAR-8) was 24.4 µM (inactive) and the GI50 (PC-3) was 49.1 µM (inactive). The GI50 (RPMI-8226) was 40.7 µM (inactive), the GI50 (SF-268) was > 100 µM (inactive) and the GI50 (SF-295) was 64 µM (inactive). The GI50 (SF-539) was > 100 µM (inactive), the GI50 (SK-MEL-28) was 78.2 µM (inactive) and the GI50 (SK-MEL-2) was > 100 µM (inactive). The GI50 (SK-MEL-5) was 22.8 µM (inactive), the GI50 (SK-OV-3) was > 100 µM (inactive) and the GI50 (SNB-19) was > 100 µM (inactive). For the same compound, the GI50 (SR) was 38.7 µM (inactive), the GI50 (SW-620) was 84.9 µM (inactive) and the GI50 (T47D) was 25.2 µM (inactive). The GI50 (U-251) was > 100 µM (inactive), the GI50 (UACC-257) was 40.2 µM (inactive) and the GI50 (UACC-62) was 52.6 µM (inactive). The GI50 (UO-31) was 7.78 µM (inactive).
